In brackets after ≈: the same amount, converted by molar mass.
Columns and labels:
Assay type in all cases: functional
[1] = tested on: Mycobacterium tuberculosis; experiment: Antimicrobial activity against Mycobacterium tuberculosis harboring 153Y to Stop mutation in thymidylate synthase A by agar dilution method
[2] = tested on: Mycobacterium tuberculosis; experiment: Antimicrobial activity against Mycobacterium tuberculosis harboring 146C to R mutation in thymidylate synthase A by agar dilution method
[3] = tested on: Mycobacterium tuberculosis; experiment: Antimicrobial activity against Mycobacterium tuberculosis harboring 127R to L mutation in thymidylate synthase A by agar dilution method
[4] = tested on: Mycobacterium tuberculosis; experiment: Antimicrobial activity against Mycobacterium tuberculosis harboring 118L to Stop mutation in thymidylate synthase A by agar dilution method
[5] = tested on: Mycobacterium tuberculosis; experiment: Antimicrobial activity against Mycobacterium tuberculosis harboring 264Stop to R mutation in thymidylate synthase A by agar dilution method
[6] = tested on: Mycobacterium tuberculosis; experiment: Antimicrobial activity against Mycobacterium tuberculosis harboring 259A to P mutation in thymidylate synthase A by agar dilution method
[7] = tested on: Mycobacterium tuberculosis; experiment: Antimicrobial activity against Mycobacterium tuberculosis harboring 172L to P mutation in thymidylate synthase A by agar dilution method
[8] = tested on: Mycobacterium tuberculosis; experiment: Antimicrobial activity against Mycobacterium tuberculosis harboring 202T to A mutation in thymidylate synthase A by agar dilution method
[9] = tested on: Mycobacterium tuberculosis; experiment: Antimicrobial activity against Mycobacterium tuberculosis harboring 191Q to R mutation in thymidylate synthase A by agar dilution method
[10] = tested on: Mycobacterium tuberculosis; experiment: Antimicrobial activity against Mycobacterium tuberculosis harboring 164Y to Stop mutation in thymidylate synthase A by agar dilution method
[11] = tested on: Mycobacterium tuberculosis; experiment: Antimicrobial activity against Mycobacterium tuberculosis harboring 182A to P mutation in thymidylate synthase A by agar dilution method
[12] = tested on: Mycobacterium tuberculosis; experiment: Antimicrobial activity against Mycobacterium tuberculosis harboring 143L to P mutation in thymidylate synthase A by agar dilution method
[13] = tested on: Mycobacterium tuberculosis; experiment: Antimicrobial activity against Mycobacterium tuberculosis harboring 251Y to Stop mutation in thymidylate synthase A by agar dilution method
[14] = tested on: Mycobacterium tuberculosis; experiment: Antimicrobial activity against Mycobacterium tuberculosis harboring 261V to G mutation in thymidylate synthase A by agar dilution method
[15] = tested on: Mycobacterium tuberculosis; experiment: Antimicrobial activity against Mycobacterium tuberculosis harboring 83W to Stop mutation in thymidylate synthase A by agar dilution method
[16] = tested on: Mycobacterium tuberculosis; experiment: Antimicrobial activity against Mycobacterium tuberculosis harboring 183L to V mutation in thymidylate synthase A by agar dilution method
[17] = tested on: Mycobacterium tuberculosis; experiment: Antimicrobial activity against Mycobacterium tuberculosis harboring 11Q to Stop mutation in thymidylate synthase A by agar dilution method
[18] = tested on: Mycobacterium tuberculosis; experiment: Antimicrobial activity against Mycobacterium tuberculosis harboring 15G to R mutation in thymidylate synthase A by agar dilution method

Work on `Nc1ccc(C(=O)O)c(O)c1` [AMINOSALICYLIC ACID] yielded an MIC [1] of over 128 µg/mL, an MIC [2] of over 128 µg/mL and an MIC [3] of over 128 µg/mL. For the same molecule, the MIC [4] was over 128 µg/mL, the MIC [5] was over 128 µg/mL and the MIC [6] was 64 µg/mL (≈ 418 µM). For the same molecule, the MIC [7] was over 128 µg/mL, the MIC [8] was under 128 µg/mL and the MIC [9] was under 64 µg/mL. It also gave an MIC [10] of over 128 µg/mL, an MIC [11] of over 128 µg/mL and an MIC [12] of over 128 µg/mL. The MIC [13] was over 128 µg/mL, the MIC [14] was over 128 µg/mL and the MIC [15] was over 128 µg/mL. The MIC [16] was under 64 µg/mL, the MIC [17] was over 128 µg/mL and the MIC [18] was over 8 µg/mL.
